Entries after “also recorded” stand apart in the source; their conditions may differ. Read-outs that look alike come from different tables or passages of the source.
How the values were obtained:
[1] = test system: drop seizures in patients with Lennox-Gastaut Syndrome; settings: Phase 3 studies, versus placebo; cited from earlier work
[2] = single ascending dose study with healthy subjects: pharmacokinetics
[3] = multiple ascending dose study with healthy subjects: safety and tolerability; format: in vivo, human
clinical [4] = settings: human; for CL renal: plasma and urine; for half-life / Cmax / Tmax / AUC(0-inf) / Vd/F: plasma
clinical [5] = settings: human, plasma, oral
prolactin [6] = assay: single ascending dose study with healthy subjects: prolactin pharmacodynamics; format: in vivo, human; settings: single doses
prolactin [7] = assay: multiple ascending dose study with healthy subjects: prolactin pharmacodynamics; format: in vivo, human; settings: multiple doses TID
Description: Prolactin serum concentrations were summarized by timepoint, dose and part. Absolute and percent change from baseline in prolactin value was calculated, with predose value on Day 1 considered as the baseline value. Observed prolactin data, absolute and percent change from baseline versus time were plotted.

[8] = single ascending dose study with healthy subjects: safety and tolerability; format: in vivo, human; settings: single doses 1 to 24 mg
[9] = for CL/F Mean / Cav Mean / Ctrough Mean: healthy subjects
[10] = multiple doses TID, healthy subjects
[11] = 3 mg TID, no titration, 14 days
[12] = 6 mg TID, no titration, 14 days
[13] = 12 mg TID, no titration, 14 days
[14] = 18 mg TID, no titration, 14 days

For CCNC(C)Cc1cccc(C(F)(F)F)c1 (stereo not shown) [fenfluramine], the “reduction of the frequency of drop seizures” value [1] is listed as “superior to placebo”.

For C[C@H]1CN2CCNCc3ccc(C(=O)NCC(F)F)c1c32 [Compound 1, (R)-N-(2,2-difluoroethyl)-7-methyl-1,2,3,4,6,7-hexahydro-[1,4]diazepino[6,7,1-hi]indole-8-carboxamide], the “dose proportionality of peak and total exposure” value ([2]; single doses 1 to 24 mg) was “slightly greater than dose proportional especially at higher doses”, the “absorption into the systemic circulation” value ([2]; single oral dose, powder in capsule formulation) was “rapidly absorbed” and the serious adverse event ([3]; after stopping treatment with 24 mg TID) was “One”. For the same molecule, the “subjects discontinued due to adverse events” value ([3]; forty-three subjects enrolled) was “Three”, the “most common TEAEs” value [3, 10] was “headache, somnolence, dizziness, dizziness postural, micturition urgency & orthostatic hypotension” and the “severity of majority of treatment emergent adverse events (TEAEs)” value [3, 10] was “mild to moderate”. For the same molecule, the “severe TEAEs” value ([3]; occurring in 3 subjects, all after cessation of dosing) was “Five”, the CL renal (clinical [4]; oral, 1 mg) was 50 mL/min and the CL renal (clinical [4]; oral, 3 mg) was 60.3 mL/min. The CL renal (clinical [4]; oral, 6 mg) was 57 mL/min, the CL renal (clinical [4]; oral, 12 mg) was 70.8 mL/min and the CL renal (clinical [4]; oral, 24 mg) was 62.5 mL/min. For the same molecule, the half-life (clinical [4]; oral) was 5 to 7 h, the Cmax (clinical [4]; oral, 1 mg) was 1.08 ng/mL and the Tmax (clinical [4]; oral, 1 mg) was 1.54 h. It also gave an AUC(0-inf) (clinical [4]; oral, 3 mg) of 40.9 ng·h/mL, a Cmax (clinical [4]; oral, 3 mg) of 6.36 ng/mL and a Tmax (clinical [4]; oral, 3 mg) of 1.02 h. It also gave a Vd/F (clinical [4]; oral, 3 mg) of 608 L, a half-life (clinical [4]; oral, 3 mg) of 4.94 h and an AUC(0-inf) (clinical [4]; oral, 6 mg) of 58.7 ng·h/mL. It also gave a Cmax (clinical [4]; oral, 6 mg) of 9.52 ng/mL, a Tmax (clinical [4]; oral, 6 mg) of 1.5 h and a Vd/F (clinical [4]; oral, 6 mg) of 1230 L. For the same molecule, the half-life (clinical [4]; oral, 6 mg) was 6.66 h, the AUC(0-inf) (clinical [4]; oral, 12 mg) was 101 ng·h/mL and the Cmax (clinical [4]; oral, 12 mg) was 17 ng/mL. It also gave a Tmax (clinical [4]; oral, 12 mg) of 1.25 h, a Vd/F (clinical [4]; oral, 12 mg) of 929 L and a half-life (clinical [4]; oral, 12 mg) of 4.67 h. For the same molecule, the AUC(0-inf) (clinical [4]; oral, 24 mg) was 288 ng·h/mL, the Cmax (clinical [4]; oral, 24 mg) was 59.3 ng/mL and the Tmax (clinical [4]; oral, 24 mg) was 1.07 h. The Vd/F (clinical [4]; oral, 24 mg) was 697 L, the half-life (clinical [4]; oral, 24 mg) was 5.09 h and the Tmax (clinical [4]; po) was 1 to 1.5 h. It also gave a Tmax (clinical [5]) of 1 to 2 h, an AUC (clinical [5]; 3 mg TID) of 27.1 ng·h/mL and an AUC(0-inf) (clinical [5]; 3 mg TID) of 46.1 ng·h/mL. The AUC(0-t) (clinical [5]; 3 mg TID) was 38.6 ng·h/mL, the Cmax (clinical [5]; 3 mg TID) was 6.61 ng/mL and the Tmax (clinical [5]; 3 mg TID) was 1.01 h. For the same molecule, the half-life (clinical [5]; 3 mg TID) was 5.56 h, the AUC (clinical [5]; 6 mg TID) was 99.8 ng·h/mL and the AUC(0-inf) (clinical [5]; 6 mg TID) was 152 ng·h/mL. It also gave an AUC(0-t) (clinical [5]; 6 mg TID) of 150 ng·h/mL, a Cmax (clinical [5]; 6 mg TID) of 20.7 ng/mL and a Tmax (clinical [5]; 6 mg TID) of 1.78 h. The half-life (clinical [5]; 6 mg TID) was 4.81 h, the AUC (clinical [5]; 12 mg TID) was 213 ng·h/mL and the AUC(0-inf) (clinical [5]; 12 mg TID) was 330 ng·h/mL. For the same molecule, the AUC(0-t) (clinical [5]; 12 mg TID) was 327 ng·h/mL, the Cmax (clinical [5]; 12 mg TID) was 44.9 ng/mL and the Tmax (clinical [5]; 12 mg TID) was 1.27 h. It also gave a half-life (clinical [5]; 12 mg TID) of 5.96 h, an AUC (clinical [5]; 18 mg TID) of 480 ng·h/mL and an AUC(0-inf) (clinical [5]; 18 mg TID) of 775 ng·h/mL. The AUC(0-t) (clinical [5]; 18 mg TID) was 773 ng·h/mL, the Cmax (clinical [5]; 18 mg TID) was 98.6 ng/mL and the Tmax (clinical [5]; 18 mg TID) was 2 h. For the same molecule, the half-life (clinical [5]; 18 mg TID) was 5.64 h, the AUC (clinical [5]; 24 mg TID) was 480 ng·h/mL and the AUC(0-inf) (clinical [5]; 24 mg TID) was 741 ng·h/mL. It also gave an AUC(0-t) (clinical [5]; 24 mg TID) of 737 ng·h/mL, a Cmax (clinical [5]; 24 mg TID) of 107 ng/mL and a Tmax (clinical [5]; 24 mg TID) of 1.04 h. The half-life (clinical [5]; 24 mg TID) was 6.5 h, the “prolactin levels by 24-hour postdose” value (prolactin [6]) was “returned to baseline for only the 6 mg dose level” and the “prolactin mean % CFB at 2 hours” value (prolactin [6]) was “increased in a dose-dependent manner, with a greater than dose proportional increase between 6 mg and 12 mg doses”. The prolactin (prolactin [6]; within 2 h) was “increased within 2 h in a dose- and concentration-dependent manner”, the “mean percent change from baseline prolactin level at 2 hours” value (prolactin [7]) was “increased with increasing doses from 3 mg to 12 mg and plateaued thereafter” and the prolactin (prolactin [7]) was “increased in a dose- and concentration-dependent manner, with greater increase seen after first dose”. The “most common treatment emergent adverse events” value [8] was “headache, postural dizziness, and nausea, which were mild to moderate in severity”, the “CL/F Mean” value [9, 11] was 125 L/h and the “Cav Mean” value [9, 11] was 3.39 ng/mL. The “Ctrough Mean” value [9, 11] was 1.94 ng/mL, the “CL/F Mean” value [9, 12] was 66.6 L/h and the “Cav Mean” value [9, 12] was 12.5 ng/mL. For the same molecule, the “Ctrough Mean” value [9, 12] was 7.02 ng/mL, the “CL/F Mean” value [9, 13] was 63.1 L/h and the “Cav Mean” value [9, 13] was 26.6 ng/mL. The “Ctrough Mean” value [9, 13] was 15.8 ng/mL, the “CL/F Mean” value [9, 14] was 45.9 L/h and the “Cav Mean” value [9, 14] was 60.0 ng/mL. For the same molecule, the “Ctrough Mean” value [9, 14] was 37.7 ng/mL, the “CL/F Mean” value ([9]; 24 mg TID, 3-day titration) was 62.9 L/h and the “Cav Mean” value ([9]; 24 mg TID, 3-day titration) was 60.1 ng/mL. The “Ctrough Mean” value ([9]; 24 mg TID, 3-day titration) was 34.0 ng/mL, the “dose eliminated by the renal route in 48 hours” value ([9]; 12/24 mg TID titration regimen) was 12.3% and the “accumulation upon multiple dosing” value ([9]; TID regimen, listed as Study Drug) was “Significant accumulation; also recorded: dose dependent accumulation”. The “steady-state achieved by” value ([9]; doses up to 18 mg TID, in most cases) was at most 10 days, the “absorption into systemic circulation” value ([9]; first dose and multiple oral doses, powder-in-capsule formulation) was “rapidly absorbed” and the “dosing time after which most subjects were at steady state” value ([9]; non-titration part) was 10 days.
